# Data from US5750504A, “Antimicrobial proteins” (Zeneca Agrochemicals, priority 1996, dated 1998).
# Key:
# Type in all cases: cell-based
# [1] = tested on: Streptococcus feacolis ATCC 29212; experiment: Antibacterial activity assay (microspectrophotometry); conditions: tested at 200 μg/ml
# Protocol: (§1) Antibacterial activity was measured microspectrophotometrically as follows. A bacterial suspension was prepared by inoculating soft nutrient agarose (tryptone, 10 g/l; Seaplaque agarose (FMC), 5 g/l). Aliquots (80 μl) of the bacterial suspension (10^5 colony forming units per ml) were added to filter-sterilized samples (20 μl) in flat-bottom 96-well microplates. The absorbance at 595 nm of the culture was measured with the aid of a microplate reader after 30 minutes and 24 hours of incubation at 28° C. Percent growth inhibition was calculated as described above for the antifungal activity assay.
# (§2) The antibacterial activities of Ah-AMP1 and Hs-AFP1 were measured on four gram positive bacteria (Bacillus subtilis JHCC 553331; Micrococcus luteus ATCC 93411; Staphylococcus aureus ATCC 25923; Streptococcus feacolis ATCC 29212) and two gram negative bacteria (Eschericia coli HB101 and Proteus vulgaris JHCC 558711).
# [2] = tested on: Micrococcus luteus ATCC 93411; experiment: as above; conditions: tested at 200 μg/ml
# Protocol: as §1, §2
# [3] = tested on: Eschericia coli HB101; experiment: as above; conditions: tested at 200 μg/ml
# Protocol: as §1, §2
# [4] = tested on: Proteus vulgaris JHCC 558711; experiment: as above; conditions: tested at 200 μg/ml
# Protocol: as §1, §2
# [5] = tested on: Staphylococcus aureus ATCC 25923; experiment: as above; conditions: tested at 200 μg/ml
# Protocol: as §1, §2
# [6] = tested on: Gloeosporium musarum; experiment: Antifungal activity assay (microspectrophotometry); conditions: for IC50: inoculum Sp, period of incubation in AFP-solution 40
# Protocol: (§3) Antifungal activity was measured by microspectrophotometry as previously described (Broekaert, 1990, FEMS Microbiol Lett, 69:55-60). Routinely, tests were performed with 20 μl of a (filter-sterilized) test solution and 80 μl of a suspension of fungal spores (2×10^4 spores/ml) in half strength potato dextrose broth (1/2 PDB). […] Control microcultures contained 20 μl of sterile distilled water and 80 μl of the fungal spore suspension.
# (§4) Unless otherwise stated the test organism was Fusarium culmorum (strain IMI 180420) and incubation was done at 25° C. for 48 hours. Percent growth inhibition is defined as 100 times the ratio of the corrected absorbance of the control microculture minus the corrected absorbance of the test microculture over the corrected absorbance at 595 nm of the control microculture. The corrected absorbance values equal the absorbance at 595 nm of the culture measured after 48 hours minus the absorbance at 595 nm measured after 30 min.
# (§5) The antifungal potency of the purified proteins was assessed on different plant pathogenic fungi, using the assay described in Example 1. Growth of fungi, collection and harvest of fungal spores and preparation of mycelial fragments were done as previously described (Broekaert et al, 1990, FEMS Microbiol Lett, 69:55-60). Serial dilutions of the antifungal proteins were applied to the fungi, either using growth medium SMF- (the synthetic growth medium of Example 1), medium SMF+ (medium SMF- supplemented with 1 mM CaCl2 and 50 mM KCl), growth medium 1/2 PDB- (half strength potato dextrose broth as in Example 1) or growth medium 1/2 PDB+ (medium 1/2 PDB- supplemented with 1 mM CaCl2 and 50 mM Kcl). The percent growth inhibition was measured by microspectrophotometry. The concentration required for 50% growth inhibition after 48 h of incubation (IC50 value) was calculated from the dose-reponse curves.
# (§6) The abbreviations used are: IC50 =concentration required for 50% growth inhibition determined as described in Example 1; ND=not determined; Sp=spores; PrSp=spores pregerminated in the medium for 24 hours; MF=mycelial fragments preincubated for 48 hours in the medium prior to addition of the proteins; BHR=broad host range; SF=saprophytic fungus; SMF-=synthetic growth medium as described in Example 1; SMF+=SMF- supplemented with 1 mM CaCl2 and 50 mM KCl; 1/2PDB-=half strength potato dextrose broth as described in Example 1; 1/2PDB+=1/2PDB- supplemented with 1 mM CaCl2 and 50 mM KCl.
# [7] = tested on: Curvularia affinis; experiment: Antifungal activity assay (microspectrophotometry); conditions: strain FAJ97, host Musa, inoculum Sp, period of incubation in AFP-solution 40
# Protocol: as §3, §4, §5, §6
# [8] = tested on: Alternaria brassicola; experiment: Antifungal activity assay (microspectrophotometry); conditions: strain MUCL20297, host Brassica, inoculum Sp, period of incubation in AFP-solution 48
# Protocol: as §3, §4, §5, §6
# [9] = tested on: Glomerella cingulata; experiment: Antifungal activity assay (microspectrophotometry); conditions: strain FAJ76, host Musa, inoculum Sp, period of incubation in AFP-solution 64
# Protocol: as §3, §4, §5, §6
# [10] = tested on: Acremonium hyalinum; experiment: Antifungal activity assay (microspectrophotometry); conditions: strain FAJ98, host Musa, inoculum Sp, period of incubation in AFP-solution 64
# Protocol: as §3, §4, §5, §6
Substance,inhibition of bacterial growth [1],inhibition of bacterial growth [2],inhibition of bacterial growth [3],inhibition of bacterial growth [4],inhibition of bacterial growth [5],reduction of activity in medium SMF- versus SMF+ ([6]; on Gloeosporium musarum),"IC50 ([6]; strain FAJ86, host Muaa, medium SMF+) [µg/mL]","IC50 ([6]; strain FAJB6, host Musa, medium SMF-) [µg/mL]",IC50 ([7]; medium SMF+) [µg/mL],IC50 ([7]; medium SMF-) [µg/mL],IC50 ([8]; medium SMF+) [µg/mL],IC50 ([8]; medium SMF-) [µg/mL],IC50 ([9]; medium SMF+) [µg/mL],IC50 ([9]; medium SMF-) [µg/mL],IC50 ([10]; medium SMF+) [µg/mL],IC50 ([10]; medium SMF-) [µg/mL]
"Hs-AFP1: Heuchera sanquinea antifungal protein 1; 5 kDa polypeptide purified from seeds, 54 amino acids, SEQ ID NO 1 (DGVKLCDVPSGTWSGHCGSSSKCSQQCKDREHFAYGGACHYQFPSVKCFCKRQC)",did not inhibit the growth,did not inhibit the growth,did not inhibit the growth,did not inhibit the growth,did not inhibit the growth,–,–,–,–,–,–,–,–,–,–,–
"Ah-AMP1: Aesculus hippocastanum antimicrobial protein 1; 5 kDa polypeptide purified from seeds, 50 amino acids, SEQ ID NO 2 (LCNERPSQTWSGNCGNTAHCDKQCQDWEKASHGACHKRENHWKCFCYFNC)",–,–,–,–,–,more than ten-fold,12.5,< 0.75,25,0.75,12,1.5,12.5,< 0.75,12.5,< 0.75
